Laboratory results reported in patent US10245249B2, “Pharmaceutical compositions comprising nitroxyl donors” (Cardioxyl Pharmaceuticals, Inc., priority 2013, dated 2019).

Key:
beagle dogs = experiment: Canine peripheral vein toxicity model, 24 hour infusion (clinical pathology markers of inflammation: WBC, fibrinogen, CRP); type: in vivo; details: for NOAEL (μg/kg/min) (actual): based on clinical pathology markers (WBC, fibrinogen, CRP), 24 hour infusion, CAPTISOL 7% w/v, pH 4
Method: Key inflammatory markers measured include white blood cells (WBC), fibrinogen, and C-reactive protein (CRP).
After 24 hours of infusion, clinical pathology changes similar to those observed in previous studies using an implanted central catheter were detected.
Studies were conducted in male and female beagle dogs. Animals were allowed free access to drinking water and a commercial canine diet under standard laboratory conditions. Animals were fasted prior to blood sample collections when indicated by the study protocol. Fluorescent lighting was provided via an automatic timer for approximately 12 hours per day. On occasion, the dark cycle was interrupted intermittently due to study-related activities. Temperature and humidity were monitored and recorded daily and maintained to the maximum extent possible between 64° F. to 84° F. and 30% to 70%, respectively. The dogs were acclimated for a period of at least 1 week. During this period, the animals were weighed weekly and observed with respect to general health and any signs of disease. The animals were acclimated to wearing a jacket for at least three days prior to dose administration. Additionally, the animals were also acclimated to wearing an Elizabethan collar (e-collar) during the jacket acclimation.
Animals were catheterized the day prior to dose administration. A percutaneous catheter was placed (using aseptic technique and sterile bandaging) in the cephalic vein distal to the elbow. The animals were free-moving in their cages during continuous infusion dose administration. To facilitate continuous infusion dose administration, the peripheral catheter was attached to an extension set routed underneath a canine jacket and then attached to a tether infusion system. To prevent the animals from accessing/removing the peripherally placed percutaneous catheter, the catheterization site was bandaged using Vet Wrap and an e-collar was placed on the animals for the duration of the treatment (i.e., the catheterized period). During the pretreatment period, the venous catheter was infused continuously at a rate of approximately 2-4 mL/hr with 0.9% sodium chloride for injection, USP (saline) to maintain catheter patency. Prior to dosing, the infusion system was pre-filled (slow bolus infusion) with the respective dosing solution to ensure that dosing began as soon as the infusion pump was started. The infusion line was connected to a reservoir containing the control or test compound and the infusion was started. Test compositions were infused continuously, at a predetermined constant infusion rate (1 or 2 mL/kg/hr), for 24 hours and were compared at molar equivalent dose rates.
A detailed clinical examination of each animal was performed twice daily and body temperature measurements and blood samples for clinical pathology were collected from all animals pre-dose and 6 hours, 12 hours, 24 hours and 72 hours post start of composition infusion. At the termination of the study, all animals were euthanized at their scheduled necropsy and complete necropsy examinations were performed. Selected tissues were collected, fixed and stored for potential future microscopic examination. The cephalic vein containing the infusion catheter was dissected intact along with the brachial vein and examined along its entire length. The location of the catheter tip was marked on the unfixed specimen. After fixation, the specimen was trimmed and processed to slide to provide transverse histologic sections representing the catheter tip and surrounding tissues both proximal and distal to the catheter tip (i.e., 1 cm distal to the catheter tip, at the catheter tip, and 1, 5, 10, 15, and 20 cm proximal to the catheter tip). Relative to the catheter tip, “proximal” was defined as closer to the heart and “distal” was defined as further from the heart.
Each compound was formulated with CAPTISOL® (7% w/v) in sterile water at a pH of 4. […]

[1] = HNO production determined via N2O quantification (GC headspace analysis); type: physicochemical; details: PBS, 37° C.
How it was run: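 Compounds dissolved in argon-purged anhydrous DMF were added to argon-purged PBS in sealed vials at 37° C for the set incubation time; headspace N2O was measured by GC with micro-ECD. N2O gas and CXL-1020 served as standards, and relative N2O yield (%) was calculated per incubation time.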

| Compound | finding in upper forelimb downstream from catheter tip (beagle dogs; after 6 hours of infusion, percutaneous catheter in cephalic vein, dogs) | microscopic pathology at the catheter tip (beagle dogs; after 24 hours of infusion, percutaneous catheter in cephalic vein, dogs) | NOAEL (μg/kg/min) (actual) (beagle dogs) [µg/kg/min] | improvement relative to CXL-1020 (beagle dogs; NOAEL, clinical pathology markers) | NOAEL compared with CXL-1020 (beagle dogs; clinical pathology markers) | Relative N2O Yield (90 minutes incubation) [1] [%] | Relative N2O Yield (360 minutes incubation) [1] [%] |
| --- | --- | --- | --- | --- | --- | --- | --- |
| CS(=O)(=O)c1ccccc1S(=O)(=O)NO [CXL-1020, N-hydroxy-2-methanesulfonylbenzene-1-sulfonamide, reference compound] | significant edema | severe thrombophlebitis | <0.03 | – | – | – | – |
| Cc1ccc(S(=O)(=O)NO)o1 [Compound 1, N-Hydroxy-5-methylfuran-2-sulfonamide] | – | – | >20 | greater than 660 fold | significantly higher than that of CXL-1020 | 52 | – |
| CS(=O)(=O)c1cccc(S(=O)(=O)NO)c1 [Compound 2, N-Hydroxy-3-methanesulfonylbenzene-1-sulfonamide] | – | – | 3 | – | significantly higher than that of CXL-1020 | 82 | 94 |
| O=S(=O)(NO)c1ccco1 [Compound 83, N-Hydroxyfuran-2-sulfonamide] | – | – | 3 | – | significantly higher than that of CXL-1020 | 42 | 86 |
| Cc1ccc(S(=O)(=O)NO)s1 [Compound 84, N-Hydroxy-5-methylthiophene-2-sulfonamide] | – | – | 10 | – | significantly higher than that of CXL-1020 | 52 | 67 |
| Cn1ccc(S(=O)(=O)NO)n1 [Compound 85, N-Hydroxy-1-methyl-1H-pyrazole-3-sulfonamide] | – | – | 3 | – | significantly higher than that of CXL-1020 | 33.5 | – |
